Our source for the Hepatotoxicity values is ChEMBL document CHEMBL1697731, “Cheminformatics analysis of assertions mined from literature that describe drug-induced liver injury in different species” (Chem Res Toxicol, 2010).

Data set [1] has as its system Hepatotoxicity. Kind of data set: Literature-mined compound from Fourches et al multi-species drug-induced liver injury (DILI) dataset, effect in rodents. The conditions noted are these: rodentia.
In data set [2] the test system is Hepatotoxicity. Put plainly: Literature-mined compound from Fourches et al multi-species drug-induced liver injury (DILI) dataset, effect in non-rodents.
The subject of data set [3] is Hepatotoxicity. Put plainly: Literature-mined compound from Fourches et al multi-species drug-induced liver injury (DILI) dataset, effect in humans. Particulars: human.

Turning to `CC1=C(/C=C/C(C)=C/C=C/C(C)=C/CO)C(C)(C)CCC1` [RETINOL], the Hepatotoxicity entry in data set [1] (Liver), in data set [2] (Liver) and in data set [3] (Liver) was “drug-induced liver injury reported” in each case.

As to `NC(=O)c1ncn([C@@H]2O[C@H](CO)[C@@H](O)[C@H]2O)n1` [RIBAVIRIN], the Hepatotoxicity entry in data set [1] is “drug-induced liver injury reported”; in data set [2] it was “no drug-induced liver injury reported”; in data set [3] it was “drug-induced liver injury reported”.

For `Cc1cc2nc3c(=O)[nH]c(=O)nc-3n(C[C@H](O)[C@H](O)[C@H](O)CO)c2cc1C` [RIBOFLAVIN], the Hepatotoxicity result in data set [1] was “no drug-induced liver injury reported”; in data set [2], “no drug-induced liver injury reported”; in data set [3] it was “drug-induced liver injury reported”.

On to `CO[C@H]1/C=C/O[C@@]2(C)Oc3c(C)c(O)c4c(c3C2=O)C2=NC3(CCN(CC(C)C)CC3)NC2=C(NC(=O)/C(C)=C\C=C\[C@H](C)[C@H](O)[C@@H](C)[C@@H](O)[C@@H](C)[C@H](OC(C)=O)[C@@H]1C)C4=O` [RIFABUTIN], for which the Hepatotoxicity entry is listed as “drug-induced liver injury reported” in data set [1] (Liver), “no drug-induced liver injury reported” in data set [2] (Liver) and “drug-induced liver injury reported” in data set [3] (Liver).

For the molecule `CO[C@H]1/C=C/O[C@@]2(C)Oc3c(C)c(O)c4c(O)c(c(/C=N/N5CCN(C)CC5)c(O)c4c3C2=O)NC(=O)/C(C)=C\C=C\[C@H](C)[C@H](O)[C@@H](C)[C@@H](O)[C@@H](C)[C@H](OC(C)=O)[C@@H]1C` [RIFAMPIN], the Hepatotoxicity result in data set [1], in data set [2] and in data set [3] was “drug-induced liver injury reported” each time.

Consider `CO[C@H]1/C=C/O[C@@]2(C)Oc3c(C)c(O)c4c(O)c(cc(O)c4c3C2=O)NC(=O)/C(C)=C\C=C\[C@H](C)[C@H](O)[C@@H](C)[C@@H](O)[C@@H](C)[C@H](OC(C)=O)[C@@H]1C` [RIFAMYCIN], for which the Hepatotoxicity result is listed as “drug-induced liver injury reported” in data set [1], “no drug-induced liver injury reported” in data set [2] and “drug-induced liver injury reported” in data set [3].

Turning to `Nc1nc2ccc(OC(F)(F)F)cc2s1` [RILUZOLE], the Hepatotoxicity entry in data set [1] is listed as “no drug-induced liver injury reported”; in data set [2] it was “no drug-induced liver injury reported”; in data set [3], “drug-induced liver injury reported”.

`Cc1c(C(=O)NN2CCCCC2)nn(-c2ccc(Cl)cc2Cl)c1-c1ccc(Cl)cc1` [RIMONABANT]: the values for the Hepatotoxicity result in data set [1], in data set [2] and in data set [3] were “drug-induced liver injury reported”, “no drug-induced liver injury reported” and “no drug-induced liver injury reported”, respectively.

Regarding `Cc1nc2n(c(=O)c1CCN1CCC(c3noc4cc(F)ccc34)CC1)CCCC2` [RISPERIDONE], the figures for the Hepatotoxicity entry in data set [1], in data set [2] and in data set [3] were “no drug-induced liver injury reported”, “no drug-induced liver injury reported” and “drug-induced liver injury reported”, respectively.

For `CC(NCCc1ccc(O)cc1)C(O)c1ccc(O)cc1.Cl` (stereo not given) [RITODRINE HYDROCHLORIDE], the Hepatotoxicity result is “no drug-induced liver injury reported” in data set [1], “drug-induced liver injury reported” in data set [2] and “no drug-induced liver injury reported” in data set [3].

Consider `CC(C)c1nc(CN(C)C(=O)N[C@H](C(=O)N[C@@H](Cc2ccccc2)C[C@H](O)[C@H](Cc2ccccc2)NC(=O)OCc2cncs2)C(C)C)cs1` [RITONAVIR], for which the Hepatotoxicity entry is listed as “drug-induced liver injury reported” in data set [1], “no drug-induced liver injury reported” in data set [2] and “drug-induced liver injury reported” in data set [3].

As to `CS(=O)(=O)c1ccc(C2=C(c3ccccc3)C(=O)OC2)cc1` [ROFECOXIB], the Hepatotoxicity result in data set [1] is listed as “drug-induced liver injury reported”; in data set [2] it was “no drug-induced liver injury reported”; in data set [3], “drug-induced liver injury reported”.

In the case of `CN(C)[C@@H]1C(O)=C(C(=O)NCN2CCCC2)C(=O)[C@@]2(O)C(O)=C3C(=O)c4c(O)cccc4[C@@](C)(O)[C@H]3C[C@@H]12` [ROLITETRACYCLINE], the Hepatotoxicity entry in data set [1] is given as “drug-induced liver injury reported”; in data set [2] it was “no drug-induced liver injury reported”; in data set [3], “no drug-induced liver injury reported”.

On to `O=C([O-])c1c(Cl)c(Cl)c(Cl)c(Cl)c1-c1c2cc(I)c(=O)c(I)c-2oc2c(I)c([O-])c(I)cc12.[Na+].[Na+]` [ROSE BENGAL SODIUM], for which the results for the Hepatotoxicity entry in data set [1], in data set [2] and in data set [3] were “drug-induced liver injury reported”, “no drug-induced liver injury reported” and “no drug-induced liver injury reported”, respectively.

Regarding `CN(CCOc1ccc(CC2SC(=O)NC2=O)cc1)c1ccccn1` (stereo not given) [ROSIGLITAZONE], the Hepatotoxicity entry in data set [1] was “drug-induced liver injury reported”; in data set [2], “no drug-induced liver injury reported”; in data set [3] it was “drug-induced liver injury reported”.

Regarding `CC(C)c1nc(N(C)S(C)(=O)=O)nc(-c2ccc(F)cc2)c1/C=C/[C@@H](O)C[C@@H](O)CC(=O)O` [ROSUVASTATIN], the Hepatotoxicity result in data set [1] is “drug-induced liver injury reported”; in data set [2], “no drug-induced liver injury reported”; in data set [3], “no drug-induced liver injury reported”.

For the molecule `CC[C@H]1OC(=O)[C@H](C)[C@@H](O[C@H]2C[C@@](C)(OC)[C@@H](O)[C@H](C)O2)[C@H](C)[C@@H](O[C@@H]2O[C@H](C)C[C@H](N(C)C)[C@H]2O)[C@](C)(O)C[C@@H](C)/C(=N\OCOCCOC)[C@H](C)[C@@H](O)[C@]1(C)O` [ROXITHROMYCIN], the Hepatotoxicity result in data set [1] is reported as “drug-induced liver injury reported”; in data set [2], “no drug-induced liver injury reported”; in data set [3] it was “drug-induced liver injury reported”.

For `CC[C@@]1(O)C(=O)OCc2c1cc1n(c2=O)Cc2cc3c([N+](=O)[O-])cccc3nc2-1` [RUBITECAN], the Hepatotoxicity entry is on record as “no drug-induced liver injury reported” in data set [1], “no drug-induced liver injury reported” in data set [2] and “drug-induced liver injury reported” in data set [3].

With `NC(=O)c1ccccc1O` [SALICYLAMIDE], the Hepatotoxicity entry is “drug-induced liver injury reported” in data set [1], “no drug-induced liver injury reported” in data set [2] and “drug-induced liver injury reported” in data set [3].

Consider `O=C(O)c1ccccc1O` [SALICYLIC ACID], for which the Hepatotoxicity result in data set [1] (Liver) is “drug-induced liver injury reported”; in data set [2] (Liver), “no drug-induced liver injury reported”; in data set [3] (Liver) it was “no drug-induced liver injury reported”.

Turning to `C#CCN(C)[C@H](C)Cc1ccccc1` [SELEGILINE], the Hepatotoxicity entry in data set [1] is given as “no drug-induced liver injury reported”; in data set [2] it was “no drug-induced liver injury reported”; in data set [3], “drug-induced liver injury reported”.

With `C[Se]CC[C@H](N)C(=O)O` [SELENOMETHIONINE], the results for the Hepatotoxicity result in data set [1], in data set [2] and in data set [3] were “drug-induced liver injury reported”, “drug-induced liver injury reported” and “no drug-induced liver injury reported”, respectively.

In the case of `Cn1cnc2c(F)c(Nc3ccc(Br)cc3Cl)c(C(=O)NOCCO)cc21` [SELUMETINIB], the Hepatotoxicity result was “drug-induced liver injury reported” in data set [1], “no drug-induced liver injury reported” in data set [2] and “no drug-induced liver injury reported” in data set [3].

For the molecule `Cc1cc(C)c(/C=C2\C(=O)Nc3ccccc32)[nH]1` [SEMAXANIB], the Hepatotoxicity result in data set [1] is reported as “drug-induced liver injury reported”; in data set [2], “no drug-induced liver injury reported”; in data set [3] it was “drug-induced liver injury reported”.

With `C=C1/C(=C\C=C2/CCC[C@]3(C)[C@@H]([C@H](C)/C=C/C=C/C(O)(CC)CC)CC[C@@H]23)C[C@@H](O)C[C@@H]1O` [SEOCALCITOL], the Hepatotoxicity result in data set [1] was “no drug-induced liver injury reported”; in data set [2] it was “no drug-induced liver injury reported”; in data set [3], “drug-induced liver injury reported”.

As for `CN[C@H]1CC[C@@H](c2ccc(Cl)c(Cl)c2)c2ccccc21` [SERTRALINE], the Hepatotoxicity entry in data set [1] (Liver) is recorded as “drug-induced liver injury reported”; in data set [2] (Liver), “no drug-induced liver injury reported”; in data set [3] (Liver), “drug-induced liver injury reported”.

On to `FCOC(C(F)(F)F)C(F)(F)F` [SEVOFLURANE], for which the Hepatotoxicity entry in data set [1] is recorded as “drug-induced liver injury reported”; in data set [2], “no drug-induced liver injury reported”; in data set [3] it was “drug-induced liver injury reported”.

For the molecule `CC(C)CC(N(C)C)C1(c2ccc(Cl)cc2)CCC1` (stereo not given) [SIBUTRAMINE], the Hepatotoxicity result in data set [1] is reported as “no drug-induced liver injury reported”; in data set [2] it was “no drug-induced liver injury reported”; in data set [3], “drug-induced liver injury reported”.

Regarding `COc1cc(C2Oc3cc([C@H]4Oc5cc(O)cc(O)c5C(=O)[C@@H]4O)ccc3OC2CO)ccc1O` (stereo not given in full) [SILIBININ], the Hepatotoxicity result in data set [1] was “drug-induced liver injury reported”; in data set [2], “no drug-induced liver injury reported”; in data set [3] it was “drug-induced liver injury reported”.

For `CO[C@H]1C[C@@H]2CC[C@@H](C)[C@@](O)(O2)C(=O)C(=O)N2CCCC[C@H]2C(=O)O[C@H]([C@H](C)C[C@@H]2CC[C@@H](O)[C@H](OC)C2)CC(=O)[C@H](C)/C=C(\C)[C@@H](O)[C@@H](OC)C(=O)[C@H](C)C[C@H](C)/C=C/C=C/C=C/1C` [SIROLIMUS], the Hepatotoxicity result is recorded as “drug-induced liver injury reported” in data set [1], “no drug-induced liver injury reported” in data set [2] and “drug-induced liver injury reported” in data set [3].
